Laboratory results taken from ChEMBL document CHEMBL1201862, “PubChem BioAssay data set” (2004).
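All cell lines were grown in 96-well plates and treated with compound for 48 hours. Here, GI50 denotes the concentration required for 50% inhibition of growth.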 Active and inactive are the calls of the source. Cut-off read from the data, not from the text of the source: active = GI50 up to about 1.1 µM and inactive = higher.

Columns and labels:
Test in all cases: inhibition of tumour cell growth, NCI panel, 48 h
786-0 = test system: 786-0
A498 = test system: A498
A549 = test system: A549
ACHN = test system: ACHN
BT-549 = test system: BT-549
CAKI-1 = test system: CAKI-1
CCRF-CEM = test system: CCRF-CEM
COLO 205 = test system: COLO 205
DU-145 = test system: DU-145
HCC 2998 = test system: HCC 2998
HCT-116 = test system: HCT-116
HCT-15 = test system: HCT-15
HOP-62 = test system: HOP-62
HOP-92 = test system: HOP-92
HT-29 = test system: HT-29
Hs-578T = test system: Hs-578T
IGROV-1 = test system: IGROV-1
K562 = test system: K562
KM12 = test system: KM12
M14 = test system: M14
MCF7 = test system: MCF7
MDA-MB-231 = test system: MDA-MB-231
MDA-MB-435 = test system: MDA-MB-435
MDA-N = test system: MDA-N
MOLT-4 = test system: MOLT-4
Malme-3M = test system: Malme-3M
NCI-H226 = test system: NCI-H226
NCI-H23 = test system: NCI-H23
NCI-H460 = test system: NCI-H460
NCI-H522 = test system: NCI-H522
NCI/ADR-RES = test system: NCI/ADR-RES
OVCAR-4 = test system: OVCAR-4
OVCAR-5 = test system: OVCAR-5
OVCAR-8 = test system: OVCAR-8
PC-3 = test system: PC-3
RPMI-8226 = test system: RPMI-8226
RXF 393 = test system: RXF 393
SF-268 = test system: SF-268
SF-295 = test system: SF-295
SF-539 = test system: SF-539
SK-MEL-28 = test system: SK-MEL-28
SK-MEL-2 = test system: SK-MEL-2
SK-MEL-5 = test system: SK-MEL-5
SK-OV-3 = test system: SK-OV-3
SN12C = test system: SN12C
SNB-19 = test system: SNB-19
SNB-75 = test system: SNB-75
SR = test system: SR
SW-620 = test system: SW-620
T47D = test system: T47D
TK-10 = test system: TK-10
U-251 = test system: U-251
UACC-257 = test system: UACC-257
UACC-62 = test system: UACC-62
UO-31 = test system: UO-31
EKVX = test system: EKVX
HL-60 = test system: HL-60
LOX IMVI = test system: LOX IMVI
OVCAR-3 = test system: OVCAR-3

For Cc1ccc(NC(=S)NNC(=O)c2cc(-c3ccccc3)nc3ccccc23)cc1C, the GI50 (786-0) was 16.3 µM (inactive), the GI50 (A498) was 16.6 µM (inactive) and the GI50 (A549) was 20.5 µM (inactive). For the same compound, the GI50 (ACHN) was 25.2 µM (inactive), the GI50 (BT-549) was 18.7 µM (inactive) and the GI50 (CAKI-1) was 59.7 µM (inactive). The GI50 (CCRF-CEM) was 27.5 µM (inactive), the GI50 (COLO 205) was 16.6 µM (inactive) and the GI50 (DU-145) was 22.4 µM (inactive). The GI50 (HCC 2998) was 18.8 µM (inactive), the GI50 (HCT-116) was 18.6 µM (inactive) and the GI50 (HCT-15) was 20.4 µM. For the same compound, the GI50 (HOP-62) was 22 µM (inactive), the GI50 (HOP-92) was 18.6 µM (inactive) and the GI50 (HT-29) was 23.7 µM (inactive). For the same compound, the GI50 (Hs-578T) was 36.1 µM (inactive), the GI50 (IGROV-1) was 20 µM (inactive) and the GI50 (K562) was 33 µM (inactive). The GI50 (KM12) was 27.4 µM (inactive), the GI50 (M14) was 15.5 µM (inactive) and the GI50 (MCF7) was 12.4 µM (inactive). For the same compound, the GI50 (MDA-MB-231) was 20.3 µM (inactive), the GI50 (MDA-MB-435) was 24 µM (inactive) and the GI50 (MDA-N) was 17.2 µM (inactive). For the same compound, the GI50 (MOLT-4) was 20.8 µM (inactive), the GI50 (Malme-3M) was 20 µM (inactive) and the GI50 (NCI-H226) was 34.8 µM (inactive). For the same compound, the GI50 (NCI-H23) was 19.3 µM (inactive), the GI50 (NCI-H460) was 19.5 µM (inactive) and the GI50 (NCI-H522) was 22.5 µM (inactive). The GI50 (NCI/ADR-RES) was 23 µM (inactive), the GI50 (OVCAR-4) was 18.1 µM (inactive) and the GI50 (OVCAR-5) was 26.8 µM (inactive). The GI50 (OVCAR-8) was 20.8 µM (inactive), the GI50 (PC-3) was 18.7 µM (inactive) and the GI50 (RPMI-8226) was 24.3 µM (inactive). For the same compound, the GI50 (RXF 393) was 27 µM (inactive), the GI50 (SF-268) was 29.4 µM (inactive) and the GI50 (SF-295) was 12.9 µM (inactive). The GI50 (SF-539) was 21.2 µM (inactive), the GI50 (SK-MEL-28) was 25.8 µM (inactive) and the GI50 (SK-MEL-2) was 18.6 µM (inactive). The GI50 (SK-MEL-5) was 18 µM (inactive), the GI50 (SK-OV-3) was 16.6 µM (inactive) and the GI50 (SN12C) was 17.6 µM (inactive). For the same compound, the GI50 (SNB-19) was 32 µM (inactive), the GI50 (SNB-75) was 16.3 µM (inactive) and the GI50 (SR) was 14.6 µM (inactive). For the same compound, the GI50 (SW-620) was 31.5 µM (inactive), the GI50 (T47D) was 0.853 µM (active) and the GI50 (TK-10) was 23.7 µM (inactive). For the same compound, the GI50 (U-251) was 19.5 µM (inactive), the GI50 (UACC-257) was 26.4 µM (inactive) and the GI50 (UACC-62) was 16.9 µM (inactive). For the same compound, the GI50 (UO-31) was 17.9 µM (inactive).
For O=c1oc2ccccc2cc1-c1csc(Nc2cc(Cl)cc(Cl)c2)n1, the GI50 (786-0) was 2.27 µM (inactive), the GI50 (A498) was 4.94 µM (inactive) and the GI50 (A549) was 4.51 µM (inactive). The GI50 (ACHN) was 1.9 µM (inactive), the GI50 (BT-549) was > 54.8 µM (inactive) and the GI50 (CCRF-CEM) was 25.2 µM (inactive). For the same compound, the GI50 (COLO 205) was 18 µM (inactive), the GI50 (DU-145) was 31.2 µM (inactive) and the GI50 (EKVX) was > 55.6 µM (inactive). For the same compound, the GI50 (HCC 2998) was > 100 µM (inactive), the GI50 (HCT-116) was 3.6 µM (inactive) and the GI50 (HCT-15) was > 100 µM. For the same compound, the GI50 (HL-60) was > 90.8 µM (inactive), the GI50 (HOP-62) was 3.85 µM (inactive) and the GI50 (HOP-92) was > 39 µM (inactive). For the same compound, the GI50 (HT-29) was 2.85 µM (inactive), the GI50 (Hs-578T) was 12.2 µM (inactive) and the GI50 (IGROV-1) was 14 µM (inactive). For the same compound, the GI50 (K562) was > 100 µM (inactive), the GI50 (KM12) was > 27.5 µM (inactive) and the GI50 (LOX IMVI) was 2.82 µM (inactive). The GI50 (M14) was > 35.5 µM (inactive), the GI50 (MCF7) was 17.4 µM (inactive) and the GI50 (MDA-MB-231) was 4.66 µM (inactive). The GI50 (MDA-MB-435) was 4.9 µM (inactive), the GI50 (MDA-N) was 29.2 µM (inactive) and the GI50 (MOLT-4) was > 43 µM (inactive). The GI50 (Malme-3M) was 11.7 µM (inactive), the GI50 (NCI-H226) was > 35.8 µM (inactive) and the GI50 (NCI-H23) was > 38.1 µM (inactive). The GI50 (NCI-H460) was 6.64 µM (inactive), the GI50 (NCI-H522) was 20.9 µM (inactive) and the GI50 (NCI/ADR-RES) was 6.59 µM (inactive). For the same compound, the GI50 (OVCAR-3) was 11.5 µM (inactive), the GI50 (OVCAR-4) was 1.79 µM (inactive) and the GI50 (OVCAR-5) was > 100 µM (inactive). For the same compound, the GI50 (OVCAR-8) was 4.11 µM (inactive), the GI50 (PC-3) was > 100 µM (inactive) and the GI50 (RPMI-8226) was > 100 µM (inactive). For the same compound, the GI50 (RXF 393) was 5.14 µM (inactive), the GI50 (SF-268) was 12.8 µM (inactive) and the GI50 (SF-295) was 6.35 µM (inactive). For the same compound, the GI50 (SF-539) was 2.28 µM (inactive), the GI50 (SK-MEL-28) was 9.51 µM (inactive) and the GI50 (SK-MEL-2) was > 100 µM (inactive). For the same compound, the GI50 (SK-MEL-5) was > 56.1 µM (inactive), the GI50 (SK-OV-3) was > 34.6 µM (inactive) and the GI50 (SN12C) was 6.31 µM (inactive). For the same compound, the GI50 (SNB-19) was > 24.2 µM (inactive), the GI50 (SNB-75) was 2.71 µM (inactive) and the GI50 (SR) was > 20 µM (inactive). For the same compound, the GI50 (SW-620) was 11.9 µM (inactive), the GI50 (T47D) was 15.5 µM (inactive) and the GI50 (TK-10) was 20.6 µM (inactive). For the same compound, the GI50 (U-251) was 2.39 µM (inactive), the GI50 (UACC-257) was > 100 µM (inactive) and the GI50 (UACC-62) was 52.5 µM (inactive). For the same compound, the GI50 (UO-31) was 2.77 µM (inactive).
